According to article PMC9090415, “Discovery of small molecule inhibitors of Plasmodium falciparum apicoplast DNA polymerase” (Journal of Enzyme Inhibition and Medicinal Chemistry, 2022):

Biological target: P. falciparum apicoplast DNA polymerase (Pf-apPOL) (Plasmodium falciparum, UniProt Q8ILY1)
Test: Fluorescence-based high-throughput DNA polymerase assay (molecular beacon), primary screen and dose-response
Type: biochemical
Details: for IC50: supplemental file 2, sheet IC50 nontoxic compounds, Pf-apPOL; for DNA Pol: 90 min, 10 µM; for % inhibition Apol 40': DRC-2, 40'
In short: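 Single-point screening used 10 µM compound with 20 nM polymerase, 20 nM hairpin substrate and 6 µM dNTPs for 90 min at 25 °C. Confirmatory titrations (2.5–80 µM) followed fluorescence at three times, and IC50 was derived from a fit including a cooperativity term n.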

[1] = 'DNA Pol', screening value, unit not given
[2] = primary screen hit value, DNA Pol (186 hits)

Sequence of P. falciparum apicoplast DNA polymerase (Pf-apPOL) (Q8ILY1 entry or part of it): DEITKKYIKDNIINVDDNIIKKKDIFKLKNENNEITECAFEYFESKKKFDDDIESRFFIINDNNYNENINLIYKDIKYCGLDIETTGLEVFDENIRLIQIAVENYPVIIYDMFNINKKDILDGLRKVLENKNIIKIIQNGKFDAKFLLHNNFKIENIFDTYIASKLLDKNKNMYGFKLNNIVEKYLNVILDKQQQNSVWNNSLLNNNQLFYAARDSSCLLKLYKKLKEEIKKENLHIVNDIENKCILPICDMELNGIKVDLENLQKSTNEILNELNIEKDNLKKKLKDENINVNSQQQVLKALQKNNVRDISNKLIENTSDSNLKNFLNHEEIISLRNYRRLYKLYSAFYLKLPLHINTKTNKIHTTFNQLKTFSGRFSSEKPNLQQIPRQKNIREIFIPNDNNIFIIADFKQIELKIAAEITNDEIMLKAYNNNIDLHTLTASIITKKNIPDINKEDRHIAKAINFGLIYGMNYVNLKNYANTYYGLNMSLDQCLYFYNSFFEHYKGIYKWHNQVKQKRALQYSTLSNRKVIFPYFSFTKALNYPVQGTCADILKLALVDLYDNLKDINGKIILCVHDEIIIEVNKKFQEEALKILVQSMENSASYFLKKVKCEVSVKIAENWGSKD

O=C1CSC2=NC3=C(CCc4ccccc43)C(c3cccs3)N12 (stereo not shown) [Molecule 59]
IC50: 14.7 µM

Cc1cc2[nH]c(C(=O)Nc3ccc(F)cc3)c(CN3CCOCC3)c2s1 [Molecule 60]
IC50: 21.6 µM

C#CC(C=CC)OC(=O)c1ccccc1C(=O)O (stereo not shown) [Molecule 61]
IC50: 18.3 µM

O=C(Nc1nnc(-c2ccno2)o1)c1ccc2ncsc2c1 [Molecule 62, O=C(c1ccc2c(c1)scn2)Nc1nnc(o1)c1ccno1]
DNA Pol [1]: 57
% inhibition Apo pol 10' (DRC-1, concentration 2.5): 10.861%
% inhibition Apo pol 10' (DRC-1, concentration 5): 15.6525%
% inhibition Apo pol 10' (DRC-1, concentration 10): 33.6921%
% inhibition Apo pol 10' (DRC-1, concentration 20): 64.2838%
% inhibition Apo pol 10' (DRC-1, concentration 40): 78.1502%
% inhibition Apo pol 10' (DRC-1, concentration 80): 81.399%
% inhibition Apol 90' (DRC-1, 90', concentration 2.5): -2.7392%
% inhibition Apol 90' (DRC-1, 90', concentration 5): 1.406%
% inhibition Apol 90' (DRC-1, 90', concentration 10): 10.5152%
% inhibition Apol 90' (DRC-1, 90', concentration 20): 33.263%
% inhibition Apol 90' (DRC-1, 90', concentration 40): 51.9867%
% inhibition Apol 90' (DRC-1, 90', concentration 80): 68.6824%
% inhibition apPOL 180' (DRC-1, 180', concentration 2.5): -12.5523%
% inhibition apPOL 180' (DRC-1, 180', concentration 5): -8.9419%
% inhibition apPOL 180' (DRC-1, 180', concentration 10): -4.993%
% inhibition apPOL 180' (DRC-1, 180', concentration 20): 10.6012%
% inhibition apPOL 180' (DRC-1, 180', concentration 40): 29.0771%
% inhibition apPOL 180' (DRC-1, 180', concentration 80): 50.4309%
% inhibition Apo pol 5' (DRC-2, 5', concentration 2.5): 9%
% inhibition Apo pol 5' (DRC-2, 5', concentration 5): 11%
% inhibition Apo pol 5' (DRC-2, 5', concentration 10): 38%
% inhibition Apo pol 5' (DRC-2, 5', concentration 20): 39%
% inhibition Apo pol 5' (DRC-2, 5', concentration 40): 37%
% inhibition Apo pol 5' (DRC-2, 5', concentration 80): 28%
% inhibition Apol 40' (concentration 2.5): 6.5%
% inhibition Apol 40' (concentration 5): 8%
% inhibition Apol 40' (concentration 10): 36%
% inhibition Apol 40' (concentration 20): 42%
% inhibition Apol 40' (concentration 40): 53%
% inhibition Apol 40' (concentration 80): 56%
% inhibition ApPOL 90' (DRC-2, 90', concentration 2.5): 4%
% inhibition ApPOL 90' (DRC-2, 90', concentration 5): 4%
% inhibition ApPOL 90' (DRC-2, 90', concentration 10): 29%
% inhibition ApPOL 90' (DRC-2, 90', concentration 20): 38%
% inhibition ApPOL 90' (DRC-2, 90', concentration 40): 54%
% inhibition ApPOL 90' (DRC-2, 90', concentration 80): 62%
% inhibition apPOL 180' (DRC-2, 180', concentration 2.5): -3%
% inhibition apPOL 180' (DRC-2, 180', concentration 5): -6%
% inhibition apPOL 180' (DRC-2, 180', concentration 10): 14%
% inhibition apPOL 180' (DRC-2, 180', concentration 20): 21%
% inhibition apPOL 180' (DRC-2, 180', concentration 40): 46%
% inhibition apPOL 180' (DRC-2, 180', concentration 80): 61%
% inhibition ApPOL 90' (conc 2.5 (unit not given), 90', DRC-2): 4%
% inhibition ApPOL 90' (conc 5 (unit not given), 90', DRC-2): 4%
% inhibition Apo pol 5' (conc 10 (unit not given), 5', DRC-2): 38%
% inhibition ApPOL 90' (conc 20 (unit not given), 90', DRC-2): 38%
DNA Pol [2]: 57

O=C(Nc1nnc(-c2ccno2)o1)c1ccc2ncsc2c1 [Molecule 62]
IC50: 14.2 µM

O=C(c1c[nH]c2ncccc12)N1CCCC1 [Molecule 63]
IC50: 21.4 µM

CN(C)C=CC(=O)c1ccccn1 [Molecule 64, CN(C=CC(=O)c1ccccn1)C]
DNA Pol [1]: 79
% inhibition Apo pol 10' (DRC-1, concentration 2.5): 5.279%
% inhibition Apo pol 10' (DRC-1, concentration 5): 16.5803%
% inhibition Apo pol 10' (DRC-1, concentration 10): 34.5693%
% inhibition Apo pol 10' (DRC-1, concentration 20): 50.9232%
% inhibition Apo pol 10' (DRC-1, concentration 40): 69.0219%
% inhibition Apo pol 10' (DRC-1, concentration 80): 79.1475%
% inhibition Apol 90' (DRC-1, 90', concentration 2.5): 1.734%
% inhibition Apol 90' (DRC-1, 90', concentration 5): 6.501%
% inhibition Apol 90' (DRC-1, 90', concentration 10): 20.4436%
% inhibition Apol 90' (DRC-1, 90', concentration 20): 33.6237%
% inhibition Apol 90' (DRC-1, 90', concentration 40): 52.2034%
% inhibition Apol 90' (DRC-1, 90', concentration 80): 65.606%
% inhibition apPOL 180' (DRC-1, 180', concentration 2.5): -0.4261%
% inhibition apPOL 180' (DRC-1, 180', concentration 5): -0.5089%
% inhibition apPOL 180' (DRC-1, 180', concentration 10): 10.9691%
% inhibition apPOL 180' (DRC-1, 180', concentration 20): 21.4909%
% inhibition apPOL 180' (DRC-1, 180', concentration 40): 39.455%
% inhibition apPOL 180' (DRC-1, 180', concentration 80): 54.1589%
% inhibition Apo pol 5' (DRC-2, 5', concentration 2.5): 10%
% inhibition Apo pol 5' (DRC-2, 5', concentration 5): 18%
% inhibition Apo pol 5' (DRC-2, 5', concentration 10): 34%
% inhibition Apo pol 5' (DRC-2, 5', concentration 20): 44%
% inhibition Apo pol 5' (DRC-2, 5', concentration 40): 50%
% inhibition Apo pol 5' (DRC-2, 5', concentration 80): 54%
% inhibition Apol 40' (concentration 2.5): 6%
% inhibition Apol 40' (concentration 5): 12%
% inhibition Apol 40' (concentration 10): 27%
% inhibition Apol 40' (concentration 20): 41%
% inhibition Apol 40' (concentration 40): 53%
% inhibition Apol 40' (concentration 80): 64%
% inhibition ApPOL 90' (DRC-2, 90', concentration 2.5): 0.656%
% inhibition ApPOL 90' (DRC-2, 90', concentration 5): 7%
% inhibition ApPOL 90' (DRC-2, 90', concentration 10): 21%
% inhibition ApPOL 90' (DRC-2, 90', concentration 20): 36%
% inhibition ApPOL 90' (DRC-2, 90', concentration 40): 50%
% inhibition ApPOL 90' (DRC-2, 90', concentration 80): 65%
% inhibition apPOL 180' (DRC-2, 180', concentration 2.5): -5%
% inhibition apPOL 180' (DRC-2, 180', concentration 5): -1.23%
% inhibition apPOL 180' (DRC-2, 180', concentration 10): 9%
% inhibition apPOL 180' (DRC-2, 180', concentration 20): 23%
% inhibition apPOL 180' (DRC-2, 180', concentration 40): 42%
% inhibition apPOL 180' (DRC-2, 180', concentration 80): 63%
% inhibition Apo pol 5' (conc 40 (unit not given), 5', DRC-2): 50%
% inhibition ApPOL 90' (conc 40 (unit not given), 90', DRC-2): 50%
DNA Pol [2]: 79

CN(C)C=CC(=O)c1ccccn1 [Molecule 64]
IC50: 18.5 µM
